The term IC50 denotes the concentration that gives 50% inhibition.

Each structure is given as a SMILES string.

This test deals with IFNγ-induced NO production in RAW264.7. Put plainly: Suppression of IFNγ-induced NO production in RAW264.7 mouse macrophages (Griess reagent, normalized to WST-1 cell viability). Type of test: cell-based. The note with it: RAW264.7 cells, 2 h pre-treatment with drug (0-200 nM), then IFNγ for 24 h. Here is the method: Nitric Oxide Production and Cell Viability. […] On the next day, cells were pre-treated with DMSO or drug (0-200 nM dose range) for 2 hours, and then treated with recombinant mouse IFNγ (R&D Systems) for 24 hours. Nitric Oxide concentration in media was determined using the Griess reagent system (Promega). Cell viability was determined using WST-1 reagent (Roche). IC50 values were determined based on the suppression of IFNγ induced Nitric Oxide production normalized to cell viability.
Background: Nitrite, measured by Griess reagent, commonly stands in for NO production.
`COC(=O)[C@]12CCC(C)(C)C[C@H]1[C@H]1C(=O)C=C3[C@@]4(C)C=C(C#N)C(=O)C(C)=C4CC[C@@]3(C)[C@]1(C)CC2` [TX63448]: the IC50 was 75 nM.

With `CCNC(=O)[C@]12CCC(C)(C)C[C@H]1[C@H]1C(=O)C=C3[C@@]4(C)C=C(C#N)C(=O)[C@@H](C)[C@@H]4CC[C@@]3(C)[C@]1(C)CC2` [TX63521], the IC50 was determined as 1.1 nM.

With `CC(=O)OC[C@]12CCC(C)(C)C[C@H]1[C@H]1C(=O)C=C3[C@@]4(C)C=C(C#N)C(=O)[C@@H](C)[C@@H]4CC[C@@]3(C)[C@]1(C)CC2` [TX63546], the IC50 amounted to 1 nM.

For the molecule `C[C@@H]1C(=O)C(C#N)=C[C@]2(C)C3=CC(=O)[C@@]4(C)[C@@H]5CC(C)(C)CC[C@]56CC[C@]4(OC6=O)[C@]3(C)CC[C@@H]12` [TX63556], the IC50 was found to be 69 nM.

For the molecule `C[C@@H]1C(=O)C(C#N)=C[C@]2(C)C3=CC(=O)[C@@H]4[C@@H]5CC(C)(C)CC[C@]5(C(N)=O)CC[C@@]4(C)[C@]3(C)CC[C@@H]12` [TX63557], the IC50 is 2.2 nM.

Regarding `C[C@@H]1C(=O)C(C#N)=C[C@]2(C)C3=CC(=O)[C@@H]4[C@@H]5CC(C)(C)CC[C@]5(C#N)CC[C@@]4(C)[C@]3(C)CC[C@@H]12` [TX63558], the IC50 is 0.6 nM.

Regarding `CCNC(=O)[C@]12CCC(C)(C)C[C@H]1[C@H]1C(=O)C=C3[C@@]4(C)C=C(C#N)C(=O)C(C)=C4CC[C@@]3(C)[C@]1(C)CC2` [TX63597], the 50% inhibitory concentration (IC50) was > 25 nM.

As to `COC(=O)[C@]12CCC(C)(C)C[C@H]1[C@H]1C(=O)C=C3[C@@]4(C)C=C(C#N)C(=O)C[C@@H]4CC[C@@]3(C)[C@]1(C)CC2` [TX63614], the IC50 worked out at 11.7 nM.

`C[C@@H]1C(=O)C(C#N)=C[C@]2(C)C3=CC(=O)[C@@H]4[C@@H]5CC(C)(C)CC[C@]5(N)CC[C@@]4(C)[C@]3(C)CC[C@@H]12` [TX63620]: the IC50 stood at 1.2 nM.

For `C[C@@H]1C(=O)C(C#N)=C[C@]2(C)C3=CC(=O)[C@@H]4[C@@H]5CC(C)(C)CC[C@]5(NS(C)(=O)=O)CC[C@@]4(C)[C@]3(C)CC[C@@H]12` [TX63621], the IC50 came to 0.8 nM.

For the molecule `CC(=O)N[C@]12CCC(C)(C)C[C@H]1[C@H]1C(=O)C=C3[C@@]4(C)C=C(C#N)C(=O)[C@@H](C)[C@@H]4CC[C@@]3(C)[C@]1(C)CC2` [TX63622], the IC50 stood at 3.8 nM.

With `CCNC(=O)[C@]12CCC(C)(C)C[C@H]1[C@H]1C(=O)C[C@@H]3[C@@]4(C)C=C(C#N)C(=O)[C@@H](C)[C@@H]4CC[C@@]3(C)[C@]1(C)CC2` [TX63680], the IC50 was 7 nM.

Take `C[C@@H]1C(=O)C(C#N)=C[C@]2(C)C3=CC(=O)[C@@H]4[C@@H]5CC(C)(C)CC[C@]5(NC=O)CC[C@@]4(C)[C@]3(C)CC[C@@H]12` [TX63681]: the IC50 is 1.6 nM.

On to `COC(=O)N[C@]12CCC(C)(C)C[C@H]1[C@H]1C(=O)C=C3[C@@]4(C)C=C(C#N)C(=O)[C@@H](C)[C@@H]4CC[C@@]3(C)[C@]1(C)CC2` [TX63693], for which the IC50 was 1.4 nM.

Regarding `C[C@@H]1C(=O)C(C#N)=C[C@]2(C)C3=CC(=O)[C@@H]4[C@@H]5CC(C)(C)CC[C@]5(COC(=O)CNC(=O)OC(C)(C)C)CC[C@@]4(C)[C@]3(C)CC[C@@H]12` [TX63716], the IC50 came to 3.2 nM.

For the molecule `C[C@@H]1C(=O)C(C#N)=C[C@]2(C)C3=CC(=O)[C@@H]4[C@@H]5CC(C)(C)CC[C@]5(COC(=O)CN)CC[C@@]4(C)[C@]3(C)CC[C@@H]12` [TX63717], the IC50 is 0.6 nM.

For `COC(=O)[C@]12CCC(C)(C)C[C@H]1[C@H]1C(=O)C=C3[C@@]4(C)CC(C#N)=C(O)[C@@H](C)[C@@H]4CC[C@@]3(C)[C@]1(C)CC2` [TX63778], the IC50 worked out at 50 nM.

Consider `COC(=O)[C@]12CCC(C)(C)C[C@H]1C1=CC[C@@H]3[C@@]4(C)C=C(C#N)C(=O)[C@@H](C)[C@@H]4CC[C@@]3(C)[C@]1(C)CC2` [TX63779], for which the IC50 was determined as 44 nM.

(Values after patent US9290536B2, “C4 monomethyl triterpenoid derivatives and methods of use thereof” (Reata Pharmaceuticals, Inc., priority 2011, dated 2016).)
